In ChEMBL document CHEMBL4507268 (2021):

How the values were obtained:
[1] = biological target: Macrophage colony-stimulating factor 1 receptor (Homo sapiens) (UniProt P07333); settings: Compound concentration 1000.0 nM
[2] = biological target: T1, Discoidin domain-containing receptor 2 (Homo sapiens) (UniProt Q16832); settings: Compound concentration 1000.0 nM
T1 sequence (whole entry): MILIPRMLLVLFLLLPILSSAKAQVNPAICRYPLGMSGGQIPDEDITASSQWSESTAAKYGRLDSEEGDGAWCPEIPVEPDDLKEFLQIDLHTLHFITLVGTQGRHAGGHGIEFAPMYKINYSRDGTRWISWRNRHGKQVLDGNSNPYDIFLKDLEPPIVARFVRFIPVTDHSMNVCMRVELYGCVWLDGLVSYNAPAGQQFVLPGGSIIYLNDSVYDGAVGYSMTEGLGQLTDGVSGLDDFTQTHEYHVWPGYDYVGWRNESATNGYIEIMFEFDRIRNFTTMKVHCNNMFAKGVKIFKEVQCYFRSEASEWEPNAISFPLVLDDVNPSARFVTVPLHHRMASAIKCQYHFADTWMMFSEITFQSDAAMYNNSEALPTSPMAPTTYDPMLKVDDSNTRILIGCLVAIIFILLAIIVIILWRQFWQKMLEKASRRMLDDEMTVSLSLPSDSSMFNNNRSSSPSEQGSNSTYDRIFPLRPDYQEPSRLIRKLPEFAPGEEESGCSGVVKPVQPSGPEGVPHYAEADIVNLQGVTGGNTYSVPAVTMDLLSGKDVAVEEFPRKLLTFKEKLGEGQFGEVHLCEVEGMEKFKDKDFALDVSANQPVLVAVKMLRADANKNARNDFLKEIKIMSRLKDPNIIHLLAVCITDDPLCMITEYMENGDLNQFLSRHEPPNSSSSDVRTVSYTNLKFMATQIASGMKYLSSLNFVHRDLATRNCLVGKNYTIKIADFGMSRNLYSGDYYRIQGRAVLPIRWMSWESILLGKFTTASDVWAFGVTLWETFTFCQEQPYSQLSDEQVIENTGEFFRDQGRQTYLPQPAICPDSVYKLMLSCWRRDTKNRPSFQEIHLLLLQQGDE

[3] = biological target: T2, Ephrin type-B receptor 1 (Homo sapiens) (UniProt P54762); settings: Compound concentration 1000.0 nM
T2 sequence (whole entry): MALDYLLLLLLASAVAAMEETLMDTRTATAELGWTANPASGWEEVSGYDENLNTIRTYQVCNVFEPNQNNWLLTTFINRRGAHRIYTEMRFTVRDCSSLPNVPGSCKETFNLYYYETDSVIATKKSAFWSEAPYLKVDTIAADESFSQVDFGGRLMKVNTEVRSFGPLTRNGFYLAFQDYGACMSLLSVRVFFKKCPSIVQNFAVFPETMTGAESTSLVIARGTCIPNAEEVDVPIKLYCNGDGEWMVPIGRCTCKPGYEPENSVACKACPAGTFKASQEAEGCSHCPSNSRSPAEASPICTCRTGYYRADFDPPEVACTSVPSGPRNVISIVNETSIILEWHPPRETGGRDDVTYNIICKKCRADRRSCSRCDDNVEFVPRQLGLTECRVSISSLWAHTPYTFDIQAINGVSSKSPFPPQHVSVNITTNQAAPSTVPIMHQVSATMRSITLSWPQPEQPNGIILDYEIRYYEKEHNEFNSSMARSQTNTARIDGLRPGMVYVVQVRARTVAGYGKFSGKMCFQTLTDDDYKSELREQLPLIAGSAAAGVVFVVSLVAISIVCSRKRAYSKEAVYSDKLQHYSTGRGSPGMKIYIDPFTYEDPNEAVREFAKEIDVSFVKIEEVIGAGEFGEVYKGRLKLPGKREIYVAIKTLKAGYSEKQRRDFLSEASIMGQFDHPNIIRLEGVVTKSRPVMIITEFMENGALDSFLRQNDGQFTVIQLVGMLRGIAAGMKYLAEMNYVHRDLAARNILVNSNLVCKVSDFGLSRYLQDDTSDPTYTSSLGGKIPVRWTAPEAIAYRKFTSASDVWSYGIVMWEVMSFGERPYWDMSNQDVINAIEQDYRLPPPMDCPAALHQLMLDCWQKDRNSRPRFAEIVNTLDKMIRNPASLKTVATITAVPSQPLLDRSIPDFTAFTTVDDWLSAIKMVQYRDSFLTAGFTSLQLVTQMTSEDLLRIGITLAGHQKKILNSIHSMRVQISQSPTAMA

[4] = system: Receptor-type tyrosine-protein kinase FLT3 (Homo sapiens), P36888 [UNDEFINED MUTATION]; settings: Compound concentration 1000.0 nM
[5] = system: Receptor-type tyrosine-protein kinase FLT3 (Homo sapiens), P36888 [N841I]; settings: Compound concentration 1000.0 nM
[6] = biological target: MAP kinase-activated protein kinase 2 (Homo sapiens) (UniProt P49137); settings: Compound concentration 1000.0 nM
Chain of MAP kinase-activated protein kinase 2 (Homo sapiens) (P49137 whole entry, looked up, canonical isoform): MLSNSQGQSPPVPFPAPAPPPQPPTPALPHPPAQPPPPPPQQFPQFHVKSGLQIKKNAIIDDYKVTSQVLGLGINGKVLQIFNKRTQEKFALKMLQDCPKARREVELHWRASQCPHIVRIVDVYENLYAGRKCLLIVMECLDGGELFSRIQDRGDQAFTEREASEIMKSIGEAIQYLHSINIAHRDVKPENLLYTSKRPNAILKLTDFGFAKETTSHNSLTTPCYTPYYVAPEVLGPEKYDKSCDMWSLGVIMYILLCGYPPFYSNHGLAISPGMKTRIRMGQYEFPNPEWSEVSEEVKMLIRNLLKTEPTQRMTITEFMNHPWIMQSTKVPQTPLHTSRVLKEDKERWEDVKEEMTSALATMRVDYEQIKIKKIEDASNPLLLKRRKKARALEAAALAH

[7] = system: Phosphatidylinositol 4,5-bisphosphate 3-kinase catalytic subunit alpha isoform (Homo sapiens), P42336 [I800L]; settings: Compound concentration 1000.0 nM
Chain of Phosphatidylinositol 4,5-bisphosphate 3-kinase catalytic subunit alpha isoform (Homo sapiens), P42336 [I800L] (P42336 whole entry I800L, canonical isoform): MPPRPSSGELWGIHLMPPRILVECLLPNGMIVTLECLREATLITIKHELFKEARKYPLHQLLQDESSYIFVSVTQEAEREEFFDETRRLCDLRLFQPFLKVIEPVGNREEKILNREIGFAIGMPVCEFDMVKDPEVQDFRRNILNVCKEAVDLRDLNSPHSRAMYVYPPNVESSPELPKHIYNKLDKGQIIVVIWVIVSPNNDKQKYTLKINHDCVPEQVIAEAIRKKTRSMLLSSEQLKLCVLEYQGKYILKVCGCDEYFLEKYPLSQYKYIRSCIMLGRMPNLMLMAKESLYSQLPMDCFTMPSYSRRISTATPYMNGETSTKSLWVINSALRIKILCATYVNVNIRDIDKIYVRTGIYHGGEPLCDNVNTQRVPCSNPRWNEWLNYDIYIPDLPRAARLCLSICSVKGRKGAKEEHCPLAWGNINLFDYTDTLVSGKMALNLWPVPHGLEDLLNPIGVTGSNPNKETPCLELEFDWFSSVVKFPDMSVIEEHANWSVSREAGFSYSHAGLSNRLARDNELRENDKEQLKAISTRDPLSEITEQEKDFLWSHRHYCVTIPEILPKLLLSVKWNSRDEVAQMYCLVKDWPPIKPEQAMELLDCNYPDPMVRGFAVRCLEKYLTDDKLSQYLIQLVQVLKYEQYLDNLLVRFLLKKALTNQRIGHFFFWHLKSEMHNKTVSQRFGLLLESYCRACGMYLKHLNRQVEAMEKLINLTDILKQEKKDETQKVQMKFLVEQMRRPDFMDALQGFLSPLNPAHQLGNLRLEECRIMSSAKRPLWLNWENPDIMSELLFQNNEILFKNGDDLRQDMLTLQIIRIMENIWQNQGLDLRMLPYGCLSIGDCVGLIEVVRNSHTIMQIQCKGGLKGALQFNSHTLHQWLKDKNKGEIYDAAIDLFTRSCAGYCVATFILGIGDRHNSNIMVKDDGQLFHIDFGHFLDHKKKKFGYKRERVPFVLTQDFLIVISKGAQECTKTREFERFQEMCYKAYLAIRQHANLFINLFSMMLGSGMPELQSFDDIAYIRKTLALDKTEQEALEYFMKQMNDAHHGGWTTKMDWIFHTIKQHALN

[8] = biological target: Serine/threonine-protein kinase pim-1 (Homo sapiens) (UniProt P11309); settings: Compound concentration 1000.0 nM
Chain of Serine/threonine-protein kinase pim-1 (Homo sapiens) (P11309 whole entry, looked up): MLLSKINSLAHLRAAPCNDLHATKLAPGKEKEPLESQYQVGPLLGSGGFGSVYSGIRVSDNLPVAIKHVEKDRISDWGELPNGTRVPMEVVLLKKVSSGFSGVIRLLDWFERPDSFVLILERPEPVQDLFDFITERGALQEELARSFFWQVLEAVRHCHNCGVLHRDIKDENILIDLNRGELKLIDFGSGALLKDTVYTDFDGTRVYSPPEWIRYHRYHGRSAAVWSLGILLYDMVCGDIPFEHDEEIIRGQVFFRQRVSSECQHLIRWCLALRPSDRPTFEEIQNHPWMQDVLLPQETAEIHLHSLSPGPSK

[9] = biological target: Serine/threonine-protein kinase RIO2 (Homo sapiens) (UniProt Q9BVS4); settings: Compound concentration 1000.0 nM
Chain of Serine/threonine-protein kinase RIO2 (Homo sapiens) (Q9BVS4 whole entry, looked up): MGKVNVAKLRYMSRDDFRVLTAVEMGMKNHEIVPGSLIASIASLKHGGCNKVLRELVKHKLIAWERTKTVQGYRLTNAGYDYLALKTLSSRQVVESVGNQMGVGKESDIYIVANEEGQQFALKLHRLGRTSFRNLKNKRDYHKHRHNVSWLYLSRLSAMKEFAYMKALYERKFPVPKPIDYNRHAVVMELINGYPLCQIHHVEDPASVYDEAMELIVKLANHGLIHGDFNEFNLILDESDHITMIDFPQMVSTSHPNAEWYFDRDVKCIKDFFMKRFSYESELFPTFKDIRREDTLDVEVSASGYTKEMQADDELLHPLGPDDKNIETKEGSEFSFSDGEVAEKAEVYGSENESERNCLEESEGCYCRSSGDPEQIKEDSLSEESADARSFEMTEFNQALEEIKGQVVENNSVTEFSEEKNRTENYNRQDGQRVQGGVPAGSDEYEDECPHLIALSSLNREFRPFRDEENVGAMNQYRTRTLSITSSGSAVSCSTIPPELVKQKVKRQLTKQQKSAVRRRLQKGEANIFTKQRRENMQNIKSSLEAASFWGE

[10] = biological target: Uncharacterized serine/threonine-protein kinase SBK3 (Homo sapiens) (UniProt P0C264); settings: Compound concentration 1000.0 nM
Chain of Uncharacterized serine/threonine-protein kinase SBK3 (Homo sapiens) (P0C264 whole entry): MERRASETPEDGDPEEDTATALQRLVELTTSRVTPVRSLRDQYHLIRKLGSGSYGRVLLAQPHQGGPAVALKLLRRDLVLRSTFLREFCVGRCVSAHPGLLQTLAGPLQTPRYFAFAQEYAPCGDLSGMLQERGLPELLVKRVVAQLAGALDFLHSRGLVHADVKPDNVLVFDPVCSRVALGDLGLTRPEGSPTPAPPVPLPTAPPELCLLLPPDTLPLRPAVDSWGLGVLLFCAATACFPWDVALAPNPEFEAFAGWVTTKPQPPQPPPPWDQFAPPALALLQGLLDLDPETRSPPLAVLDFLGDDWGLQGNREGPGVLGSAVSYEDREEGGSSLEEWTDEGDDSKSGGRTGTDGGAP

[11] = biological target: T3, Testis-specific serine/threonine-protein kinase 1 (Homo sapiens) (UniProt Q9BXA7); settings: Compound concentration 1000.0 nM
T3 sequence (whole entry): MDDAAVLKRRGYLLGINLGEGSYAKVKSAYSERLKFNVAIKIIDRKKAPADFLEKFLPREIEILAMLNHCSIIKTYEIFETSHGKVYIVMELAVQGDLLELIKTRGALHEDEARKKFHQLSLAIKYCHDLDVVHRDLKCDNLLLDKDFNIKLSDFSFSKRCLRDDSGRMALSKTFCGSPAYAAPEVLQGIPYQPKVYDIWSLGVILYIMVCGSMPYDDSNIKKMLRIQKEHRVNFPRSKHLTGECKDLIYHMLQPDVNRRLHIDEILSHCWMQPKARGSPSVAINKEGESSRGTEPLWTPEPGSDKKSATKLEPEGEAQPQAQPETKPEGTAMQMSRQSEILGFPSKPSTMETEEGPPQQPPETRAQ

[12] = biological target: Vascular endothelial growth factor receptor 2 (Homo sapiens) (UniProt P35968); settings: Compound concentration 1000.0 nM
Chain of Vascular endothelial growth factor receptor 2 (Homo sapiens) (P35968 whole entry): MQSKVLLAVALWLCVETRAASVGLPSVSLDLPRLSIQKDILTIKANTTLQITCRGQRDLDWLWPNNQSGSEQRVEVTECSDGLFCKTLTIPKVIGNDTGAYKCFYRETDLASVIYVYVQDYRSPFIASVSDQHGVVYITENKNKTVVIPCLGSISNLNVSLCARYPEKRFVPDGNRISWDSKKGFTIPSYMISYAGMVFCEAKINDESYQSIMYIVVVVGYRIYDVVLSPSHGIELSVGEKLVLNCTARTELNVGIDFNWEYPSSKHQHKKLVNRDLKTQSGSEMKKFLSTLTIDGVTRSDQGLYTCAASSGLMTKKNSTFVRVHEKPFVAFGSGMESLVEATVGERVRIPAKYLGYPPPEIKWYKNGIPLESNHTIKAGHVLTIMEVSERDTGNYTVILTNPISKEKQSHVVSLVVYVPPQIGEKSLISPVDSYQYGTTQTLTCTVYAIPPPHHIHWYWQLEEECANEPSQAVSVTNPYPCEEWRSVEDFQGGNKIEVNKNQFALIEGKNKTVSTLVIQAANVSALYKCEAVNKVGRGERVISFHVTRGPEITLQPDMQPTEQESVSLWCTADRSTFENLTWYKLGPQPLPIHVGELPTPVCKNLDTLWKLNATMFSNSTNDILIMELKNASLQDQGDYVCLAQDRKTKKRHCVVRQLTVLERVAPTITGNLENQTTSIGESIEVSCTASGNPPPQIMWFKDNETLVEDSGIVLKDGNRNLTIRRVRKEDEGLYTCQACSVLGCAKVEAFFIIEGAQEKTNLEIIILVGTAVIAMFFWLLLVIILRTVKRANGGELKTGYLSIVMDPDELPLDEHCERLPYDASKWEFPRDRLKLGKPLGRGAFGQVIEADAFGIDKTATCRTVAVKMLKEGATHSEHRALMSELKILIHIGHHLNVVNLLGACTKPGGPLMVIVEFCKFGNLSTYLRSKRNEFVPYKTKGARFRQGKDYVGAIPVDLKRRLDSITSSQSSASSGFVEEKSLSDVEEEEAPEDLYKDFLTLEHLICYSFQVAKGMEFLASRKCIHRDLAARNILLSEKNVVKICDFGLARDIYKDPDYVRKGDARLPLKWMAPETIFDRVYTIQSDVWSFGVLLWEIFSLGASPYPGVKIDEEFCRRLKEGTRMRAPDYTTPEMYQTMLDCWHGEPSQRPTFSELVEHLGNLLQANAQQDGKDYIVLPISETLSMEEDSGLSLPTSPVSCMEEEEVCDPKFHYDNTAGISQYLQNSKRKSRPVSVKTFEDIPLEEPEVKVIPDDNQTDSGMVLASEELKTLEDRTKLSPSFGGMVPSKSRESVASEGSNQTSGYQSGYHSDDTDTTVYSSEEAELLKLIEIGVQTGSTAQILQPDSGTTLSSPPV

[13] = biological target: GABA-A receptor; anion channel (Rattus norvegicus) (UniProt O09028+P15431+P18506+P18508+P19969+P20236+P23574+P23576+P28471+P28473+P30191+P62813+P63079+P63138+Q91ZM7+Q9ES14); settings: Compound concentration 10.0 uM

Chain of Macrophage colony-stimulating factor 1 receptor (Homo sapiens) (P07333 whole entry, the tested form may be a part): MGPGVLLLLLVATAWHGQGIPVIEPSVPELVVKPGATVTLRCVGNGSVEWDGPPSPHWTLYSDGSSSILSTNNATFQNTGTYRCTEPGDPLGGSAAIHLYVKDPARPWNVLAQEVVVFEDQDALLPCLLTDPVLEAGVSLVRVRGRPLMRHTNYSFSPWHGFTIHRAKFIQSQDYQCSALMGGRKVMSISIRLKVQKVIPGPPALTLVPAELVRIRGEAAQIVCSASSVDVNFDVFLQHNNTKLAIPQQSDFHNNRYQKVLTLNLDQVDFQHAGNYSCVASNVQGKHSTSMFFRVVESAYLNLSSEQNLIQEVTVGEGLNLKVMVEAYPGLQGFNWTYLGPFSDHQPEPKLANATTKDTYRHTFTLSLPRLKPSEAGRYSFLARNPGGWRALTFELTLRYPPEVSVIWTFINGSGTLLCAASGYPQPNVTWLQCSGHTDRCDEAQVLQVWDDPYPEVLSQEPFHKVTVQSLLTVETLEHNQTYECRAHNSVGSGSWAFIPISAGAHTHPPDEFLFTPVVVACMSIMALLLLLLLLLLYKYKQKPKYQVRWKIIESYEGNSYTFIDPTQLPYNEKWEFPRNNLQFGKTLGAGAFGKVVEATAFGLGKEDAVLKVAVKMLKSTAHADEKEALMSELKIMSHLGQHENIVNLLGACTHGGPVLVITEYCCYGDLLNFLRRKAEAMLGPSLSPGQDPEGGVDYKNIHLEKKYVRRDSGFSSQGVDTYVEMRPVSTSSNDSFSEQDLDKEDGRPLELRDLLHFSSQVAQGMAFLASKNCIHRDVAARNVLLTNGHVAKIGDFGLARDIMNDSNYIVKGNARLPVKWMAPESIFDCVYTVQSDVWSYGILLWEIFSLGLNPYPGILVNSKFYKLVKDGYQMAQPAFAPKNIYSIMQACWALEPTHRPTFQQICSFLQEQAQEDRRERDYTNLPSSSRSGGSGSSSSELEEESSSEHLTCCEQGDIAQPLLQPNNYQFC

CN1CCN(c2cnc3c(C4CCN(C(=O)c5ccc(OC(F)(F)F)cc5N)CC4)ncnc3c2)CC1 [BAY-885]
inactive: residual activity [1] 100% | residual activity [2] 100% | residual activity [3] 100% | residual activity [4] 100% | residual activity [5] 100% | residual activity [6] 100% | residual activity [7] 100% | residual activity [8] 90% | residual activity [9] 100% | residual activity [10] 72% | residual activity [11] 100% | residual activity [12] 100% | inhibition [13] 21.8%

Cc1nc(C2CCN(C(=O)c3ccc(OC(F)(F)F)cc3N)CC2)c2ncc(N3CCN(C)CC3)cc2n1 [BAY-693]
inactive: residual activity [1] 99% | residual activity [2] 92% | residual activity [3] 95% | residual activity [4] 84% | residual activity [5] 100% | residual activity [6] 100% | residual activity [7] 96% | residual activity [8] 100% | residual activity [9] 100% | residual activity [10] 77% | residual activity [11] 100% | residual activity [12] 93% | inhibition [13] 15%
